Experimental data: patent publication EP0754455A1, “PHARMACEUTICAL COMPOSITIONS BASED ON AMINOMETHYLINDOLES AND THEIR THERAPEUTICAL APPLICATION AS NEUROPROTECTORS IN PARKINSON AND ALZHEIMER DISEASES” (CONSEJO SUPERIOR INVESTIGACIONES CIENTIFICAS (CSIC), priority 1995, dated 1996)

Columns and labels:
MAO-B [1] = target: T1, MAO-B (Rattus norvegicus, UniProt P19643); test: Kinetic parameters of suicide-type inhibition, MAO-B (selectivity K1 MAO-A / K1 MAO-B); type: biochemical, Sprague-Dawley rat; details: selectivity for MAO-B
T1 construct: from tissue; host or cells: Sprague-Dawley rat liver, mitochondrial fraction
T1 sequence (P19643 1-520): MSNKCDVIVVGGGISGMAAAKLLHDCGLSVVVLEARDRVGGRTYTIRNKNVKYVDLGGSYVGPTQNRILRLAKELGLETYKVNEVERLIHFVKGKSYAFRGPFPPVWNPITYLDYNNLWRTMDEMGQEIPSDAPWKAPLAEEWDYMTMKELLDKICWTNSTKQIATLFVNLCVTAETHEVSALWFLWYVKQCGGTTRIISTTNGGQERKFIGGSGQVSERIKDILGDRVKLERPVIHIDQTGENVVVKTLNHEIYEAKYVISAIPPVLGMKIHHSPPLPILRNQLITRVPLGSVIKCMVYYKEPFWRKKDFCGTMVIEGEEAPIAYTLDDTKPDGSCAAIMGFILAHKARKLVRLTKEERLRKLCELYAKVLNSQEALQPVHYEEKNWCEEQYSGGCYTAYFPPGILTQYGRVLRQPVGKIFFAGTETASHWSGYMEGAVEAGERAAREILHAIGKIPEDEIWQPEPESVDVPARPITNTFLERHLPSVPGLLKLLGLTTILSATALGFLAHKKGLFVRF
Source text: K1 is the affinity constant of the first stage of the reaction and K1 MAO-A / K1 MAO-B the expression of the selectivity.
K^1cat is the velocity constant for the formation of the covalent irreversible complex during the second stage of the process. To compare the values of these constants towards the two forms of MAO, we express the inhibition efficacy as the ratio K^1cat/K1. The value of these constants (see Tables 2 and 3), is the result of three different experiments, with their corresponding SEM.

MPTP neurotoxin = test: Protection against the neurotoxicity of MPTP (striatal DA and DOPAC levels); type: in vivo, mice of the C57/BL species; details: striate, FA-73 3 mg/Kg i.p. 2 h before MPTP HCl 30 mg/Kg i.p., MPTP repeated on day 2, 24 h after last MPTP
Procedure: Two hours later they were administered MPTP HCl (30 mg/Kg i.p.) and this dose was repeated on the second day. Twenty four hours after the last injection of MPTP the animals were sacrificed. The brains were dissected and determinations made of the dopamine (DA) and 3,4-dihydroxyphenylacetic acid (DOPAC) levels in the striate.

dopamine uptake carrier = target: T2, dopamine uptake carrier (Rattus norvegicus, UniProt P23977); test: Dopamine re-uptake in purified synaptosomes of rat brain striatal tissue; type: biochemical, Sprague-Dawley rats; details: substrate concentration 0.1 µM
T2 construct: purified synaptosomes of brain striatal tissue from Sprague-Dawley rats; from tissue; host or cells: Sprague-Dawley rat brain striatum, purified synaptosomes
Procedure: Kinetic studies of dopamine re-uptake were carried out in purified synaptosomes of brain striatal tissue from Sprague-Dawley rats.

MAO-A = target: T3, MAO-A (Mus musculus, UniProt Q64133); test: Ex vivo inhibition of brain MAO-A after i.p. administration; type: in vivo, C57/BL mice; details: mouse brain homogenate 2 hours after i.p., l-deprenyl 10 mg/Kg, tested compound 4 mg/Kg
T3 construct: the brains homogenised in potassium phosphate buffer 50 mM, pH 7.2; from tissue; host or cells: C57/BL mouse brain homogenate
T3 sequence (Q64133 1-526): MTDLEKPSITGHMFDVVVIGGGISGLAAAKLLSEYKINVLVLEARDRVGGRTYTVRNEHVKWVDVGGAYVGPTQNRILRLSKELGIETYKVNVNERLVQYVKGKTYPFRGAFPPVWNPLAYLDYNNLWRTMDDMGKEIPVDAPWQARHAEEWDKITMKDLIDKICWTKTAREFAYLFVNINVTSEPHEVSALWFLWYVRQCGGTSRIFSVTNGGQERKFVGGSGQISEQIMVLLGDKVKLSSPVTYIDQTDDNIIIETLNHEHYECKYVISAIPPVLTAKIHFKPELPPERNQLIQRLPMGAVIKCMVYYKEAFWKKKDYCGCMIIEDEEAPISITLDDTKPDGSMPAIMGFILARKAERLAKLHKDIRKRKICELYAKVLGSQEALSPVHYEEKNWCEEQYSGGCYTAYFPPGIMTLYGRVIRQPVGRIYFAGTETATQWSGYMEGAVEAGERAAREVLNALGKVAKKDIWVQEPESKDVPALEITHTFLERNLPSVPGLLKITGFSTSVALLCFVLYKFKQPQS
Procedure: (§1) The pharmacological assays were carried out on C57/BL mice. These animals are sensitive to the induction of the symptomatology of Parkinson's disease through the action of MPTP.
(§2) The animals were sacrificed by decapitation after 2 hours and the brains homogenised in potassium phosphate buffer 50 mM, pH 7.2. Determinations were made of the MAO-A and MAO-B activity in each case using radiometric methods.

MAO-B [2] = target: T4, MAO-B (Mus musculus, UniProt Q8BW75); test: Ex vivo inhibition of brain MAO-B after i.p. administration
T4 sequence (Q8BW75 1-520): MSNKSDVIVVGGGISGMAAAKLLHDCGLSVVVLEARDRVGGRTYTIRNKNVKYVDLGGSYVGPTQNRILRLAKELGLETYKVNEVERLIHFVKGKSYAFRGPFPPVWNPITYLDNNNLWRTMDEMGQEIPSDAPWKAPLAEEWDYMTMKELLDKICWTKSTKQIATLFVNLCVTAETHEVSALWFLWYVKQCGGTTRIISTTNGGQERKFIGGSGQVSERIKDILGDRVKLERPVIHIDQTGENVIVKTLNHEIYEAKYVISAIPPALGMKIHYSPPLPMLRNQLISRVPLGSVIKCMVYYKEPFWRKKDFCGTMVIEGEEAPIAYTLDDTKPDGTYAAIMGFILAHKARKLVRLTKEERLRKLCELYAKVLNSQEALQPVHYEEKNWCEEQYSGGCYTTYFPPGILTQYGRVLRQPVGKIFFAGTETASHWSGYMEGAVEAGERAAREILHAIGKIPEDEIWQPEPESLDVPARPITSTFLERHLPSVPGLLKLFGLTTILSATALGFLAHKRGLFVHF
Procedure: as §1, §2

T2 sequence (P23977 whole entry): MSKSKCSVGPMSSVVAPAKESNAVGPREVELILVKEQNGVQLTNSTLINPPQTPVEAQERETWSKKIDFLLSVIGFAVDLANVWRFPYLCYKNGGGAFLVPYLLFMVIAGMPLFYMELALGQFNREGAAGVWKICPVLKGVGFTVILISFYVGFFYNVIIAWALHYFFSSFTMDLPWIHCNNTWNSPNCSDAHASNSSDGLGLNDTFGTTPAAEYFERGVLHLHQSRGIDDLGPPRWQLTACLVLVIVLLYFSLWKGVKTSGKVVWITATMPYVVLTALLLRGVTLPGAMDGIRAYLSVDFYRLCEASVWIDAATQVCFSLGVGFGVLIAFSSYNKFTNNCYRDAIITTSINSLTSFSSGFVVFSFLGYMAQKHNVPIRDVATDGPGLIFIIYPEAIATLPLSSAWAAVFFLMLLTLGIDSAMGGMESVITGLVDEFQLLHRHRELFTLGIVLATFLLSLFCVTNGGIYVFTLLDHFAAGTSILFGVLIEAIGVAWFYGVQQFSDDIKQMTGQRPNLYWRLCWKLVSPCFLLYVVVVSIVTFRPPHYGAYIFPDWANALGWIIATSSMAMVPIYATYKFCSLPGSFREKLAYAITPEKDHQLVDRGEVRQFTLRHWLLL

For `C#CCNCc1cc2cc(OCc3ccccc3)ccc2[nH]1` [FA-73], the “K1 MAO-A/K1 MAO-B” value (MAO-B [1]) was 1066.6, the DOPAC (MPTP neurotoxin; control 0.98, MPTP alone 0.54) was 0.93 ± 0.023 µg/g dry tissue and the “Dopamine (DA)” value (MPTP neurotoxin; control 10.85, MPTP alone 3.13) was 10.48 ± 0.085 µg/g dry tissue. For the same compound, the IC50 (dopamine uptake carrier) was 150 µM, the remaining activity at 4 mg/kg (MAO-A; ip, control = 100%) was 96.2% and the “MAO-A ACTIVITY” value (MAO-A; control 485) was 467. For the same compound, the “crossing of the hematoencephalic barrier” value (MAO-B [2]; concluded from brain MAO-B inhibition after 4 mg/Kg i.p. in C57/BL mice) was “crosses the hematoencephalic barrier” and the “MAO-B ACTIVITY” value (MAO-B [2]; mouse brain homogenate 2 hours after i.p., l-deprenyl 10 mg/Kg, tested compound 4 mg/Kg, control 303) was 16.
